Assays:
Experiment in all cases: KinomeScan
Type in all cases: binding
Details in all cases: 1 μM
[1] = biological target: T1, ABL1(F317L)-nonphosphorylated (Homo sapiens, UniProt P00519, F317L)
T1 construct: purchased DiscoverX (KINOMEscan)

[2] = biological target: T2, AMPK-alpha1 (Homo sapiens, UniProt Q13131)
T2 construct: purchased DiscoverX (KINOMEscan)

[3] = biological target: T3, AXL (Homo sapiens, UniProt P30530)
T3 construct: purchased DiscoverX (KINOMEscan)

[4] = biological target: T4, BMPR1A (Homo sapiens, UniProt P36894)
T4 construct: purchased DiscoverX (KINOMEscan)

[5] = biological target: T5, BMX (Homo sapiens, UniProt P51813)
T5 construct: purchased DiscoverX (KINOMEscan)

[6] = biological target: T6, BRAF(V600E) (Homo sapiens, UniProt P15056, V600E)
T6 construct: purchased DiscoverX (KINOMEscan)

[7] = biological target: T7, CAMK1 (Homo sapiens, UniProt Q14012)
T7 construct: purchased DiscoverX (KINOMEscan)

[8] = biological target: T8, CAMK1D (Homo sapiens, UniProt Q8IU85)
T8 construct: purchased DiscoverX (KINOMEscan)

[9] = biological target: T9, CAMK4 (Homo sapiens, UniProt Q16566)
T9 construct: purchased DiscoverX (KINOMEscan)

[10] = biological target: T10, CAMKK1 (Homo sapiens, UniProt Q8N5S9)
T10 construct: purchased DiscoverX (KINOMEscan)

[11] = biological target: T11, CDKL5 (Homo sapiens, UniProt O76039)
T11 construct: purchased DiscoverX (KINOMEscan)
T11 sequence (O76039 whole entry): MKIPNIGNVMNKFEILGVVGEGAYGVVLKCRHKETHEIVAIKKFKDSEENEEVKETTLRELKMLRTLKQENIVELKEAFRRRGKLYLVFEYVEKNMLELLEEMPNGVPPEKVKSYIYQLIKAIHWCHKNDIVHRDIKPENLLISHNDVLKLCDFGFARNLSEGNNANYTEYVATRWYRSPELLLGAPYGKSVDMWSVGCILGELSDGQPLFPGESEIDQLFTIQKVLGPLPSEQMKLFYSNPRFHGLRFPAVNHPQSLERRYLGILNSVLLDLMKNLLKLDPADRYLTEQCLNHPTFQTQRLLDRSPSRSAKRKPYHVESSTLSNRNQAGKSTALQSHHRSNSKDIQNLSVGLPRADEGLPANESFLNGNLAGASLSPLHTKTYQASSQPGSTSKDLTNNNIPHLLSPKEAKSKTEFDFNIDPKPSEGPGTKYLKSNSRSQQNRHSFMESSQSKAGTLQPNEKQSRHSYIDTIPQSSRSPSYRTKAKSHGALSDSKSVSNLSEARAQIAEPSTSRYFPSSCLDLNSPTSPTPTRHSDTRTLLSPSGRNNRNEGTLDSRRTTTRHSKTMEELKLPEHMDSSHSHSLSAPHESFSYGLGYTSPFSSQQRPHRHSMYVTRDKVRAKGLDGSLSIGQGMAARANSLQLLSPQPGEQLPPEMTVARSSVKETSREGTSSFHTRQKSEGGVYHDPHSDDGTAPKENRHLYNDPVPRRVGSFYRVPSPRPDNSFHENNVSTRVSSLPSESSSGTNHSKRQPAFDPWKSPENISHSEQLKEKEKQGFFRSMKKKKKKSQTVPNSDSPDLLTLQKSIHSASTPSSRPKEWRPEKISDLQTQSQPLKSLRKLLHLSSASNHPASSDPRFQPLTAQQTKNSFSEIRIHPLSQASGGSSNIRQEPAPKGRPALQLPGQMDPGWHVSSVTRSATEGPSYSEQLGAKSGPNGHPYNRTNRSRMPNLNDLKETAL

[12] = biological target: T12, CSK (Homo sapiens, UniProt P41240)
T12 construct: purchased DiscoverX (KINOMEscan)

[13] = biological target: T13, CSNK1A1 (Homo sapiens, UniProt P48729)
T13 construct: purchased DiscoverX (KINOMEscan)

[14] = biological target: T14, EGFR(G719S) (Homo sapiens, UniProt P00533, G719S)
T14 construct: purchased DiscoverX (KINOMEscan)

[15] = biological target: T15, EGFR(L861Q) (Homo sapiens, UniProt P00533, L861Q)
T15 construct: purchased DiscoverX (KINOMEscan)

[16] = biological target: T16, EPHA3 (Homo sapiens, UniProt P29320)
T16 construct: purchased DiscoverX (KINOMEscan)

[17] = biological target: T17, ERK3 (Homo sapiens, UniProt Q16659)
T17 construct: purchased DiscoverX (KINOMEscan)

[18] = biological target: T18, FLT1 (Homo sapiens, UniProt P17948)
T18 construct: purchased DiscoverX (KINOMEscan)
T18 sequence (P17948 27-1338): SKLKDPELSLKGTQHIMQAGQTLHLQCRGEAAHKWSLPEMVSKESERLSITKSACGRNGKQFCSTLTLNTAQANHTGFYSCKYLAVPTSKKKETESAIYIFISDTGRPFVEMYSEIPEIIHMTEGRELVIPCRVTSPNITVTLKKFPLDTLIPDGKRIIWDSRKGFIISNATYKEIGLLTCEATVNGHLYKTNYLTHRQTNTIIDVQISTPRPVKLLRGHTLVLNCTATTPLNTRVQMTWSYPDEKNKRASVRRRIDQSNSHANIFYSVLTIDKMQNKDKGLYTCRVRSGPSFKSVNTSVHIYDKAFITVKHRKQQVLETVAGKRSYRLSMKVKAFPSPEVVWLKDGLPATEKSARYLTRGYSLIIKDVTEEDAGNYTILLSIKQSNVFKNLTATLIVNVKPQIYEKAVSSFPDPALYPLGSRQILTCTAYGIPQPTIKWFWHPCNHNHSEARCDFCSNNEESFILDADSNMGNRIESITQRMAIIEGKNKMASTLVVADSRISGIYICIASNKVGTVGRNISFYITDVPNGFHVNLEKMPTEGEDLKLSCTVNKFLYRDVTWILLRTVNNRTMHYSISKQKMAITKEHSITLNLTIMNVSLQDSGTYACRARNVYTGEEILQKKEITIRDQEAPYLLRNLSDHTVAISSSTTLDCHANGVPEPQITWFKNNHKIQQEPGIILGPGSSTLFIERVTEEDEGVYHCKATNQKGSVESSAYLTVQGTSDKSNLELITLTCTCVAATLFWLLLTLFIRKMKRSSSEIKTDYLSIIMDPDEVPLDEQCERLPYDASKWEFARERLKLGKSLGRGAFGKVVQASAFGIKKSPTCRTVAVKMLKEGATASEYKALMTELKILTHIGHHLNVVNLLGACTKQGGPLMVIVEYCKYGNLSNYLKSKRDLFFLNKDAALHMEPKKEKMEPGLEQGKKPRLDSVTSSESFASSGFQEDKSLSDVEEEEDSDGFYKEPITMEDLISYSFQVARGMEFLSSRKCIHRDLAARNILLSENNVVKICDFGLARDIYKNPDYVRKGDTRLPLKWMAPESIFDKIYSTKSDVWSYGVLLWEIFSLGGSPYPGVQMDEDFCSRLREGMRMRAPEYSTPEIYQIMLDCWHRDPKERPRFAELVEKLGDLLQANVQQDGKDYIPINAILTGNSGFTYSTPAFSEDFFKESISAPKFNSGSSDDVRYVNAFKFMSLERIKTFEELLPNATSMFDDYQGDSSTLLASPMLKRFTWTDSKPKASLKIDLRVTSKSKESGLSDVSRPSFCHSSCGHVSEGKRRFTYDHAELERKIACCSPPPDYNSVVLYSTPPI

[19] = biological target: T19, GAK (Homo sapiens, UniProt O14976)
T19 construct: purchased DiscoverX (KINOMEscan)

[20] = biological target: T20, ICK (Homo sapiens, UniProt Q9UPZ9)
T20 construct: purchased DiscoverX (KINOMEscan)

[21] = biological target: T21, IKK-beta (Homo sapiens, UniProt O14920)
T21 construct: purchased DiscoverX (KINOMEscan)

[22] = biological target: T22, JAK1(JH2domain-pseudokinase) (Homo sapiens, UniProt P23458)
T22 construct: JAK1(JH2domain-pseudokinase); purchased DiscoverX (KINOMEscan)

[23] = biological target: T23, MAP4K3 (Homo sapiens, UniProt Q8IVH8)
T23 construct: purchased DiscoverX (KINOMEscan)

[24] = biological target: T24, MAPKAPK2 (Homo sapiens, UniProt P49137)
T24 construct: purchased DiscoverX (KINOMEscan)

[25] = biological target: T25, MARK2 (Homo sapiens, UniProt Q7KZI7)
T25 construct: purchased DiscoverX (KINOMEscan)

[26] = biological target: T26, MEK1 (Homo sapiens, UniProt Q02750)
T26 construct: purchased DiscoverX (KINOMEscan)
T26 sequence (Q02750 whole entry): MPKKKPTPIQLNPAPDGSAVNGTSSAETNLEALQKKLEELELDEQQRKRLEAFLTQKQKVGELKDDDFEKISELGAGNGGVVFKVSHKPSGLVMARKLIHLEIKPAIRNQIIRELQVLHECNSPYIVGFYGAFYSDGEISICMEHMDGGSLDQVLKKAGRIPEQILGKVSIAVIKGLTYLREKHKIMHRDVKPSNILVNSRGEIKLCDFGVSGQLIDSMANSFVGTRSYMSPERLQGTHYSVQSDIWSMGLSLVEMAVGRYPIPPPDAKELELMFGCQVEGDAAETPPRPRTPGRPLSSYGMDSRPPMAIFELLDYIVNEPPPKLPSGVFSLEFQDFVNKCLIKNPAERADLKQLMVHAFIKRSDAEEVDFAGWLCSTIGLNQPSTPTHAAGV

[27] = biological target: T27, MKNK2 (Homo sapiens, UniProt Q9HBH9)
T27 construct: purchased DiscoverX (KINOMEscan)

[28] = biological target: T28, MRCKB (Homo sapiens, UniProt Q9Y5S2)
T28 construct: purchased DiscoverX (KINOMEscan)

[29] = biological target: T29, NIM1 (Homo sapiens, UniProt Q8IY84)
T29 construct: purchased DiscoverX (KINOMEscan)

[30] = biological target: T30, STK16 (Homo sapiens, UniProt O75716)
T30 construct: purchased DiscoverX (KINOMEscan)

[31] = biological target: T31, TGFBR1 (Homo sapiens, UniProt P36897)
T31 construct: purchased DiscoverX (KINOMEscan)
T31 sequence (P36897 34-503): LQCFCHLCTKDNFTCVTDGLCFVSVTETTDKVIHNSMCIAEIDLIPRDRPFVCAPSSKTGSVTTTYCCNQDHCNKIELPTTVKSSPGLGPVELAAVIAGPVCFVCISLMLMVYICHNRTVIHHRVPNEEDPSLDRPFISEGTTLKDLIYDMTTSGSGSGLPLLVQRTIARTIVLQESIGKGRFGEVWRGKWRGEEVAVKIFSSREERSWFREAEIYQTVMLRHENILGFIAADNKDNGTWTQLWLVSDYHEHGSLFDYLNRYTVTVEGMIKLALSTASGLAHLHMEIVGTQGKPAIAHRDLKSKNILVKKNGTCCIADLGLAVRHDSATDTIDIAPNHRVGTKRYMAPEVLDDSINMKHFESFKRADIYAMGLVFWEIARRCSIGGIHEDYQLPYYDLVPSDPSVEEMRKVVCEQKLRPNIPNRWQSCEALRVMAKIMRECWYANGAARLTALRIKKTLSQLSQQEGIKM

[32] = biological target: T32, TLK1 (Homo sapiens, UniProt Q9UKI8)
T32 construct: purchased DiscoverX (KINOMEscan)

[33] = biological target: T33, TNIK (Homo sapiens, UniProt Q9UKE5)
T33 construct: purchased DiscoverX (KINOMEscan)

[34] = biological target: T34, TNK2 (Homo sapiens, UniProt Q07912)
T34 construct: purchased DiscoverX (KINOMEscan)

[35] = biological target: T35, TNNI3K (Homo sapiens, UniProt Q59H18)
T35 construct: purchased DiscoverX (KINOMEscan)
T35 sequence (Q59H18 whole entry): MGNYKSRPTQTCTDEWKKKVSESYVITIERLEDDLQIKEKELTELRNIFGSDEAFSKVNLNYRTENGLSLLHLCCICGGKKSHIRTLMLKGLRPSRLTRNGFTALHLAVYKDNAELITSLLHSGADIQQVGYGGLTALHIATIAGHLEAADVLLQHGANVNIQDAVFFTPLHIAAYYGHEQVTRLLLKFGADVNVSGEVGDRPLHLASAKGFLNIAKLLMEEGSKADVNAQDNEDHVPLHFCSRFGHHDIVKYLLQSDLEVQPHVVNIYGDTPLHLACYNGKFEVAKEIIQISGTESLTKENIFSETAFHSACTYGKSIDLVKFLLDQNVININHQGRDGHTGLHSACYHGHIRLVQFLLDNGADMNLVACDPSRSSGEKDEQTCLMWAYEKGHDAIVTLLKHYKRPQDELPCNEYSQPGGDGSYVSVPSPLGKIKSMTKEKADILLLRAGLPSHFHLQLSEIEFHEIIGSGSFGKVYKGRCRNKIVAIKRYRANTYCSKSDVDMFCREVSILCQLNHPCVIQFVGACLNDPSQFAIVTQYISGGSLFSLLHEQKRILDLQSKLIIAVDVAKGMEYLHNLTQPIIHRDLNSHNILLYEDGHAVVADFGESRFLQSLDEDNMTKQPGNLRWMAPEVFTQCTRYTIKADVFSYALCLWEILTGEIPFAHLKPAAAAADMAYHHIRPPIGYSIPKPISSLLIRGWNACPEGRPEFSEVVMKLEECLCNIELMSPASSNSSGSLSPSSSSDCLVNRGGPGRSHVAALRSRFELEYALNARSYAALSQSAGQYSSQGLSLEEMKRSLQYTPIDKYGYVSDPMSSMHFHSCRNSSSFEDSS

[36] = biological target: T36, ULK1 (Homo sapiens, UniProt O75385)
T36 construct: purchased DiscoverX (KINOMEscan)

[37] = biological target: T37, YES (Homo sapiens, UniProt P07947)
T37 construct: purchased DiscoverX (KINOMEscan)

T3 sequence (P30530 26-894): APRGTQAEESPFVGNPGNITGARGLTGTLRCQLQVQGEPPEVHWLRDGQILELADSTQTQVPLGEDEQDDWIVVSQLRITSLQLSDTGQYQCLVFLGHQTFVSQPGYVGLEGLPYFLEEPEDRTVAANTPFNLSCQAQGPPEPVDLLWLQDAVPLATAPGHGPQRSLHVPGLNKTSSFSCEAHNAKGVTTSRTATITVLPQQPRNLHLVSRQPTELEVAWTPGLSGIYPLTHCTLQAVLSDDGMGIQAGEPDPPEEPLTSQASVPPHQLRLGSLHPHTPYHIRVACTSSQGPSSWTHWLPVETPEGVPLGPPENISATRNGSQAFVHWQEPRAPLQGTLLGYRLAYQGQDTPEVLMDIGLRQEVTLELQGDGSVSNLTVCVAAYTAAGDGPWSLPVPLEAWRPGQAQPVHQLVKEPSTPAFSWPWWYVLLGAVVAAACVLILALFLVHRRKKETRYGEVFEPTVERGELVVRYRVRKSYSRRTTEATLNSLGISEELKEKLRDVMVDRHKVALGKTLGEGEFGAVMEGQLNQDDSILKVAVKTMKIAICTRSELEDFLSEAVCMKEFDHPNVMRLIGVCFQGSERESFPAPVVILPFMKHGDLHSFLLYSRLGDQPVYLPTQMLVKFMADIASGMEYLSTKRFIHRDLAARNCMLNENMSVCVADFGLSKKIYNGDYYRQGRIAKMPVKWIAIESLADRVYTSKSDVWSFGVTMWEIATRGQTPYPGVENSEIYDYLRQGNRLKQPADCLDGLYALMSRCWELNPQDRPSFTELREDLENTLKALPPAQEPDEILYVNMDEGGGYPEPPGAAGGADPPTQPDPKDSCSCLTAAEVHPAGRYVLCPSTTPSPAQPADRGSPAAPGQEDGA

## COc1cc(/C=C2\N=C(N)NC2=O)ccc1O [Polyandrocarpamine A]
[1]
  Score: 100
[2]
  Score: 100
[3]
  Score: 100
[4]
  Score: 100
[5]
  Score: 100
[6]
  Score: 96
[7]
  Score: 100
[8]
  Score: 100
[9]
  Score: 94
[10]
  Score: 100
[11]
  Score: 100
[12]
  Score: 100
[13]
  Score: 100
[14]
  Score: 100
[15]
  Score: 100
[16]
  Score: 87
[17]
  Score: 82
[18]
  Score: 100
[19]
  Score: 100
[20]
  Score: 100
[21]
  Score: 100
[22]
  Score: 92
[23]
  Score: 78
[24]
  Score: 100
[25]
  Score: 100
[26]
  Score: 100
[27]
  Score: 100
[28]
  Score: 100
[29]
  Score: 100
[30]
  Score: 100
[31]
  Score: 100
[32]
  Score: 94
[33]
  Score: 100
[34]
  Score: 100
[35]
  Score: 98
[36]
  Score: 94
[37]
  Score: 100

From paper PMC5666424, “Marine-Derived 2-Aminoimidazolone Alkaloids. Leucettamine B-Related Polyandrocarpamines Inhibit Mammalian and Protozoan DYRK & CLK Kinases” (Marine Drugs, 2017)
